Key:
[1] = system: human iPS cells (DSPC-3 strain); assay: Bright field observation of cell aggregates in suspension culture (neuroepithelium formation); type: cell-based; conditions: Example 8; StemFit; SAG 300 nM day 0; day 22
Procedure: The thus-prepared subconfluent human iPS cells were treated with the cell dispersion solution by using TrypLE Select (manufactured by Life Technologies), further dispersed into single cells by pipetting operation, and the above human iPS cells dispersed into single cells were suspended in 100 μl of a serum-free medium at 1.2×10^4 cells per well of a non-cell-adhesive 96-well culture plate (SUMILON SPHEROID V-bottom plate PrimeSurface 96V-bottom plate, SUMITOMO BAKELITE). Thereafter, the cells were subjected to suspension culturing at 37° C., 5% CO2. As the serum-free medium (gfCDM+KSR) therefor, a serum-free medium which is a 1:1 mixture of F-12 medium and IMDM medium supplemented with 10% KSR, 450 μM 1-monothioglycerol, 1× Chemically defined lipid concentrate was used. At the time of the start of suspension culturing (day 0 after the start of suspension culturing, start of step 2), the above serum-free medium supplemented with Y27632 (final concentration 20 μM) and further supplemented with SAG as an exogenous Shh signal transduction pathway activating substance (final concentration 300 nM), or not supplemented with SAG (final concentration 0 nM) was used (FIG. 10). On day 2 after the start of suspension culturing, cell aggregates were formed. […]

[2] = system: human iPS cells (1231A3 strain); assay: Bright field observation of cell aggregates in suspension culture (aggregate shape, neuroepithelium / neural tissue formation); type: cell-based
Procedure: The above subconfluent human iPS cells were treated with a cell dispersion solution by using TrypLE Select (Life Technologies), and further dispersed into single cells by a pipetting operation. Thereafter, the above human iPS cells dispersed into single cells were suspended in 100 μl of a serum-free medium in a non-cell-adhesive 96 well culture plate (PrimeSurface 96V-bottom plate, SUMITOMO BAKELITE) at 1.2×10^4 cells per well, and subjected to suspension culturing at 37° C., 5% CO2. As a serum-free medium (gfCDM+KSR) therefor, a 1:1 mixture of F-12 medium and IMDM medium supplemented with 10% KSR, 450 μM 1-monothioglycerol, 1× Chemically defined lipid concentrate was used. At the start of the suspension culturing (on day 0 after the start of suspension culturing, step 2 start), Y27632 (final concentration 20 μM) was added to the above serum-free medium. By day 2 after the start of suspension culturing, cell aggregates were formed (step 2 completed, and step 3 start). On day 3 after the start of suspension culturing, a serum-free medium (50 μl) free of Y27632 was added.
On day 6 after the start of suspension culturing, a half amount of the medium was changed with a medium free of Y27632 and containing or not containing human recombinant BMP4 (manufactured by R&D) to adjust the final concentration of exogenous human recombinant BMP4 to 1.5 nM (55 ng/ml, FIG. 1B) or to give a medium free of exogenous human recombinant BMP4 (FIG. 1A). As the half-medium exchange operation, a half volume of the medium in the culture vessel, namely 75 μl, was discarded, the above fresh serum-free medium (75 μl) was added to adjust the total medium amount to 150 μl. Thereafter, a half amount of the medium was changed with the above serum-free medium free of Y27632 and human recombinant BMP4 once per 2-4 days. […]
The thus-prepared subconfluent human iPS cells were treated with a cell dispersion solution by using TrypLE Select (Life Technologies), and further dispersed into single cells by a pipetting operation. Thereafter, the above human iPS cells dispersed into single cells were suspended in 100 μl of a serum-free medium in a non-cell-adhesive 96 well culture plate (PrimeSurface 96V-bottom plate, SUMITOMO BAKELITE) at 1.2×10^4 cells per well, and subjected to suspension culturing at 37° C., 5% CO2. As a serum-free medium (gfCDM+KSR) therefor, a 1:1 mixture of F-12 medium and IMDM medium supplemented with 10% KSR, 450 μM 1-monothioglycerol, 1× Chemically defined lipid concentrate was used. […] By day 2 after the start of suspension culturing, cell aggregates were formed (step 2 completed, step 3 start). On day 3 after the start of suspension culturing, a serum-free medium (50 μl) free of Y27632 and SAG was added. On day 6 after the start of suspension culturing, a half amount of the medium was changed with a medium free of Y27632 and containing or not containing human recombinant BMP4 (manufactured by R&D) to adjust the final concentration of exogenous human recombinant BMP4 to 1.5 nM (55 ng/ml, FIG. 1D) or to give a medium free of exogenous human recombinant BMP4 (FIG. 1C). As the half-medium exchange operation, a half volume of the medium in the culture vessel, namely 75 μl, was discarded, the above fresh serum-free medium (75 μl) was added to adjust the total medium amount to 150 μl. Thereafter, a half amount of the medium was changed with the above serum-free medium free of Y27632, SAG and human recombinant BMP4 once per 2-4 days. […]
The thus-prepared subconfluent human iPS cells were treated with the cell dispersion solution by using TrypLE Select (Life Technologies), further dispersed into single cells by pipetting operation, and the above human iPS cells dispersed into single cells were suspended in 100 μl of a serum-free medium at 1.2×10^4 cells per well of a non-cell-adhesive 96-well culture plate (PrimeSurface 96V-bottom plate, manufactured by SUMITOMO BAKELITE). Thereafter, the cells were subjected to suspension culturing at 37° C., 5% CO2. […]

[3] = Example 2 Condition 3, Essential 8, SAG 300 nM day 0, no BMP4, day 18

## CNC1CCC(N(Cc2cccc(-c3ccncc3)c2)C(=O)c2sc3ccccc3c2Cl)CC1 (stereo not drawn) [SAG]
[1]
  aggregate shape and neuroepithelium formation (bright field): cell aggregates were maintained, and neuroepithelium was formed
[2]; Example 1, StemFit, SAG 300 nM day 0, BMP4 1.5 nM day 6, day 19
  aggregate shape and neuroepithelial structure (bright field): cell aggregates were maintained, and neuroepithelial structure was observed
[2]; Example 1, StemFit, SAG 300 nM day 0, no BMP4, day 19
  aggregate shape and neuroepithelial structure (bright field): cell aggregates were maintained, and neuroepithelial structure was observed
[2]; [3]
  aggregate shape and neuroepithelial structure (bright field): cell aggregates were maintained, and neuroepithelial structure was efficiently formed
  proportion of bad form aggregates (collapsed, free of neuroepithelium): 6%
  proportion of good form aggregates (containing many neuroepithelia): 93%
[2]; Example 2 Condition 4, Essential 8, SAG 300 nM day 0, BMP4 1.5 nM day 6, day 18
  aggregate shape and neuroepithelial structure (bright field): cell aggregates were maintained, and neuroepithelial structure was efficiently formed
[2]; Example 4 Condition 1, StemFit, SAG 300 nM day 0, BMP4 1.5 nM day 3, day 18
  aggregate shape and neural tissue formation (microscope): cell aggregates were maintained, and a neural tissue was formed
[2]; Example 4 Condition 2, StemFit, SAG 300 nM day 0, BMP4 1.5 nM day 6, day 18
  aggregate shape and neural tissue formation (microscope): cell aggregates were maintained, and a neural tissue was formed
[2]; Example 5 Condition 1, StemFit, SAG 600 nM day 0, BMP4 1.5 nM day 3, day 18
  aggregate shape and neural tissue formation (microscope): cell aggregates were maintained, and a neural tissue was formed
[2]; Example 5 Condition 2, StemFit, SAG 600 nM day 0, BMP4 1.5 nM day 6, day 18
  aggregate shape and neural tissue formation (microscope): cell aggregates were maintained, and a neural tissue was formed
[2]; Example 7, StemFit, SAG 30 nM, PMA 0.2 μM or human recombinant Shh 300 ng/ml day 0, BMP4 1.5 nM day 3, day 18
  aggregate growth and neuroepithelium formation (bright field): cell aggregates grew and neuroepithelium was formed

From patent US11214772B2, “Production method for retinal tissue” (SUMITOMO DAINIPPON PHARMA CO., LTD., priority 2014, dated 2022)
